Entries after “also recorded” stand apart in the source; their conditions may differ.
Tested on: anthracnose on bentgrass
Assay: Evaluation of fungicides for control of anthracnose on bentgrass putting greens (field test)
Type: in vivo, Colletotrichum graminicola
Source text: The test was established on the 16th green at the Fianna Hills Country Club in Fort Smith, Ark. The green is more than 20 years old and was maintained at 0.156-inch mowing height and with other standard practices used at Fianna Hills. The design was a randomized complete block with 20 treatments and four replications. Individual plots were 4 feet×5 feet and isolated with a spray shield during applications. Treatments were applied on approximate 14- or 28-day schedules. Actual dates of applications were 31 May, 13 Jun., 27 Jun., 12 Jul., 26 Jul., and 9 Aug., all in 2002. Treatments were applied at 4 gal/1000 sq ft using a hand-held CO2-powered sprayer at 20 psi with a TeeJet 8004VS spray tip. The amount of active ingredient per 1000 square feet for each fungicide is provided in Table I. The C3 biocontrol is a strain of Lysobacter enzymogenes that was supplied by Dr. Gary Yuen from the University of Nebraska. The MX 567 active ingredient was first dissolved in acetone and then diluted with water. Treatments were evaluated by recording disease incidence, disease intensity, and turf quality.

[1] = 2 Aug, 2.5 g ai + .05% Tween per 1000 sq ft, days 0, 13, 27, 42, 56, 70
[2] = 19 Aug, 2.5 g ai + .05% Tween per 1000 sq ft, days 0, 13, 27, 42, 56, 70

For C[C@H](COc1cc(F)ccc1F)NC(=O)C(C#N)C(C)(C)C (stereo in doubt) [MX 567, rel-2-cyano-N-[(1R)-2-(2,5-difluorophenoxy)-1-methylethyl]-3,3-dimethylbutanamide], the “Incidence (%) of plot area with anthracnose symptoms” value (“Incidence (%) of plot area” below) [1] was 23%, the “Intensity (0 = no disease to 4 = dead)” value [1] was 1.0 and the “Severity (incidence × intensity)” value [1] was 23. The “Incidence (%) of plot area” value (16 Jul, 2.5 g ai + .05% Tween per 1000 sq ft, days 0, 13, 27, 42, 56, 70) was 21%, the “Incidence (%) of plot area” value [2] was 29% and the “Intensity (0 = no disease to 4 = dead)” value [2] was 1.0. The “Severity (incidence × intensity)” value [2] was 29, the “Turf quality (0-9 rating scale: 0 = all dead, 9 = excellent)” value [2] was 6.3 and the “Incidence (%) of plot area” value (26 Jul, 2.5 g ai + .05% Tween per 1000 sq ft, days 0, 13, 27, 42, 56, 70) was 2%. For the same molecule, the “turf quality, in words” value (summary of Table I) was “increases in turf quality; also recorded: highest turf quality” and the “disease severity, in words” value (summary of Table I versus nontreated checks) was “significant reductions in disease severity”.
